Assays:
virus strain F (R13025) = assay: microbe, parasite or virus in culture; type: cell-based, HIV; conditions: FR=EC50(mutant strain)/EC50(HIV-1 strain LAI); strain F
Procedure, shortened: (§1)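 HIV-infected MT4 cells were incubated five days with inhibitor, and viability was read by MTT reduction at 540 nm. EC50/EC90 are the concentrations protecting 50%/90% of cells from viral cytopathic effect. Fold resistance is EC50 against the clinical isolate divided by EC50 against HIV-1 LAI.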

virus strain S (R13080) = assay: microbe, parasite or virus in culture; type: cell-based, HIV; conditions: FR=EC50(mutant strain)/EC50(HIV-1 strain LAI); strain S
Procedure, shortened: as §1

[1] = test system: clinically isolated HIV strain H; type: cell-based; conditions: FR=EC50(mutant strain)/EC50(HIV-1 strain LAI)
Method: (§2) HIV- or mock-infected MT4 cells were incubated for five days in the presence of various concentrations of the inhibitor. […] Cell viability is measured by measuring the concentration of MTT, a yellow, water soluble tetrazolium dye that is converted to a purple, water insoluble formazan in the mitochondria of living cells only. Upon solubilization of the resulting formazan crystals with isopropanol, the absorbance of the solution is monitored at 540 nm. The values correlate directly to the number of living cells remaining in the culture at the completion of the five day incubation. The inhibitory activity of the compound was monitored on the virus-infected cells and was expressed as EC50 and EC90. These values represent the amount of the compound required to protect 50% and 90%, respectively, of the cells from the cytopathogenic effect of the virus. The toxicity of the compound was measured on the mock-infected cells and was expressed as CC50, which represents the concentration of compound required to inhibit the growth of the cells by 50%. The selectivity index (SI) (ratio CC50/EC50) is an indication of the selectivity of the anti-HIV activity of the inhibitor.
(§3) Because of the increasing emergence of drug resistant HIV strains, the present compounds were tested for their potency against clinically isolated HIV strains harboring several mutations.
(§4) As a measure of the broad spectrum activity of the present compounds, the fold resistance (FR) defined as FR=EC50(mutant strain)/EC50(HIV-1 strain LAI).

[2] = test system: clinically isolated HIV strain I; type: cell-based; conditions: FR=EC50(mutant strain)/EC50(HIV-1 strain LAI)
Method: as §2, §3, §4

[3] = test system: clinically isolated HIV strain J; type: cell-based; conditions: FR=EC50(mutant strain)/EC50(HIV-1 strain LAI)
Method: as §2, §3, §4

[4] = test system: clinically isolated HIV strain O; type: cell-based; conditions: FR=EC50(mutant strain)/EC50(HIV-1 strain LAI)
Method: as §2, §3, §4

[5] = test system: clinically isolated HIV strain T; type: cell-based; conditions: FR=EC50(mutant strain)/EC50(HIV-1 strain LAI)
Method: as §2, §3, §4

SMILES	fold resistance (FR), strain F (virus strain F (R13025))	fold resistance (FR), strain S (virus strain S (R13080))	fold resistance (FR), strain H [1]	fold resistance (FR), strain I [2]	fold resistance (FR), strain J [3]	fold resistance (FR), strain O [4]	fold resistance (FR), strain T [5]
CC(C)CN(C[C@@H](O)[C@H](Cc1ccccc1)NC(=O)OCc1cccnc1)S(=O)(=O)c1ccc2nc(NCCN3CCNCC3)sc2c1 [Compound 58]	2.1	4.4	1.6	0.7	2.0	1.7	27.0
Cc1cccc(C)c1OCC(=O)N[C@@H](Cc1ccccc1)[C@H](O)CN(CC(C)C)S(=O)(=O)c1ccc2nc(NCCN3CCNCC3)sc2c1 [Compound 59]	2.3	4.7	1.2	1.2	1.7	2.0	22.2
Cc1c(N)cccc1C(=O)N[C@@H](Cc1ccccc1)[C@H](O)CN(CC(C)C)S(=O)(=O)c1ccc2nc(NCCN3CCNCC3)sc2c1 [Compound 60]	1.2	1.4	1.3	1.3	0.6	1.1	4.1
CC(C)CN(C[C@@H](O)[C@H](Cc1ccccc1)NC(=O)OCc1cccnc1)S(=O)(=O)c1ccc2nc(NC(=O)CN3CCCC3)sc2c1 [Compound 61]	32.7	80.0	5.2	4.8	10.6	7.1	1090.0
Cc1c(N)cccc1C(=O)N[C@@H](Cc1ccccc1)[C@H](O)CN(CC(C)C)S(=O)(=O)c1ccc2nc(NC(=O)CN3CCCC3)sc2c1 [Compound 62]	14.5	16.1	3.2	2.8	2.4	2.7	277.9
Cc1c(N)cccc1C(=O)N[C@@H](Cc1ccccc1)[C@H](O)CN(CC(C)C)S(=O)(=O)c1ccc2nc(NC(=O)CN3CCN(C)CC3)sc2c1.O=C(O)C(F)(F)F [Compound 66]	4.0	5.6	0.9	1.0	1.2	1.0	87.9
CC(C)CN(C[C@@H](O)[C@H](Cc1ccccc1)NC(=O)O[C@H]1CCOC1)S(=O)(=O)c1ccc2nc(NCCN3CCCC3)sc2c1.O=C(O)C(F)(F)F [Compound 68]	65.2	180.7	7.3	2.4	3.9	3.5	775.2
Cc1cc(Br)ccc1C(=O)N[C@@H](Cc1ccccc1)[C@H](O)CN(CC(C)C)S(=O)(=O)c1ccc2nc(NC(=O)CN3CCCC3)sc2c1 [Compound 70]	4.7	10.4	3.1	3.7	3.3	3.2	145.1
CC(=O)N(CCN1CCCC1)c1nc2ccc(S(=O)(=O)N(CC(C)C)C[C@@H](O)[C@H](Cc3ccccc3)NC(=O)OCc3cccnc3)cc2s1 [Compound 71]	29.6	79.6	2.7	2.2	7.0	5.0	321.5
CC(=O)Nc1nc2ccc(S(=O)(=O)N(CC(C)C)C[C@@H](O)[C@H](Cc3ccccc3)NC(=O)c3cc([N+](=O)[O-])ccc3C)cc2s1 [Compound 72]	67.0	118.0	24.9	26.2	11.4	24.4	641.1
CC(=O)Nc1nc2ccc(S(=O)(=O)N(CC(C)C)C[C@@H](O)[C@H](Cc3ccccc3)NC(=O)c3cc(N)ccc3C)cc2s1 [Compound 73]	43.1	966.6	9.8	12.1	14.1	20.7	966.6
Cc1cc(C#N)cc(C)c1OCC(=O)N[C@@H](Cc1ccccc1)[C@H](O)CN(CC(C)C)S(=O)(=O)c1ccc2nc(NC(=O)CN3CCCC3)sc2c1 [Compound 75]	16.3	19.0	3.6	7.4	19.4	18.7	93.6
CC(=O)N(C)c1nc2ccc(S(=O)(=O)N(CC(C)C)C[C@@H](O)[C@H](Cc3ccccc3)NC(=O)COc3c(C)cccc3C)cc2s1 [Compound 77]	8.9	11.6	2.2	8.3	11.0	11.7	144.7
CC(=O)N(CCN1CCCC1)c1nc2ccc(S(=O)(=O)N(CC(C)C)C[C@@H](O)[C@H](Cc3ccccc3)NC(=O)COc3c(C)cccc3C)cc2s1 [Compound 78]	4.8	12.1	2.6	3.9	2.9	8.9	60.5
CC(=O)N(C)c1nc2ccc(S(=O)(=O)N(CC(C)C)C[C@@H](O)[C@H](Cc3ccccc3)NC(=O)O[C@H]3CCOC3)cc2s1 [Compound 79]	113.0	313.0	12.1	3.9	9.8	7.4	893.1
CC(=O)N(C)c1nc2ccc(S(=O)(=O)N(CC(C)C)C[C@@H](O)[C@H](Cc3ccccc3)NC(=O)OCc3cncs3)cc2s1 [Compound 80]	17.4	26.6	5.7	3.9	17.6	8.1	457.6
CC(=O)N(C)c1nc2ccc(S(=O)(=O)N(CC(C)C)C[C@@H](O)[C@H](Cc3ccccc3)NC(=O)OCc3cccnc3)cc2s1 [Compound 81]	106.8	121.0	5.6	6.1	29.6	20.4	387.6

From US7659404B2, “Broad spectrum 2-(substituted-amino)-benzothiazole sulfonamide HIV protease inhibitors” (Tibotec Pharmaceuticals Ltd., priority 2001, dated 2010)
